Assay results taken from PMC9019904, “AD Informer Set: Chemical tools to facilitate Alzheimer's disease drug discovery” (Alzheimer's & Dementia : Translational Research & Clinical …, 2022).
In brackets after ≈: the same amount, converted by molar mass. Where a SMILES comes first, the peptide text is derived from it. [ ]: non-standard residue; d: D form. dHyp = O=C(O)[C@H]1C[C@H](O)CN1

Tests used:
[1] = Kinetic solubility in aqueous buffer pH 7.4 by total chemiluminescent nitrogen determination (Analiza); conditions: aqueous buffer, pH 7.4, aqueous buffer, kinetic from dmso stock
[2] = system: HMC3 (human microglia) cell line; assay: pHrodo-myelin phagocytosis/cell viability high content imaging assay: phagocytosis signal; type: cell-based
Procedure, shortened: (§1)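 Mouse BV2 and human HMC3 microglia given pHrodo-myelin; phagocytosis and cell viability imaged together by high content imaging about 22 hours after myelin addition. Three measurements extracted, including intensity increase and decrease marking early and later apoptosis.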

[3] = system: BV2 (mouse microglia) cell line; assay: as above; type: cell-based
Procedure, shortened: as §1

[4] = system: HMC3 (human microglia) cell line; assay: pHrodo-myelin phagocytosis/cell viability high content imaging assay: viability (cell count, nuclear area, nuclear intensity); conditions: 48 hours treatment
Procedure, shortened: (§2)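 Immortalized microglia are treated with compound (10 μM, single concentration) for 48 h, the final 20 h alongside pHrodo-myelin. Data are the mean of duplicates, reported as % of untreated control.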

[5] = system: BV2 (mouse microglia) cell line; assay: as above; conditions: 48 hours treatment
Procedure, shortened: as §2

[6] = HMC3 cells, 10 uM compound, 48 hours treatment, pHrodo-myelin final 20 hours
[7] = BV2 cells, 10 uM compound, 48 hours treatment, pHrodo-myelin final 20 hours
[8] = HMC3, compound 10 uM, pHrodo-myelin
[9] = BV2, compound 10 uM, pHrodo-myelin

| SMILES | solubility kinetic [1] | 4. Phagocytosis (% control) [2, 6] | 4. Phagocytosis (% control) [3, 7] | 1. Cell count (% control) ([4]; HMC3 cells, 10 uM compound) | 2. Nuclear Area (% Control) ([4]; HMC3 cells, 10 uM compound) | 3. Nuclear DNA Intensity (% control) ([4]; HMC3 cells, 10 uM compound) | 1. Cell count (% control) ([5]; BV2 cells, 10 uM compound) | 2. Nuclear Area (% Control) ([5]; BV2 cells, 10 uM compound) | 3. Nuclear DNA Intensity (% control) ([5]; BV2 cells, 10 uM compound) | 4. Phagocytosis (% control) [2, 8] | 4. Phagocytosis (% control) [3, 9] | 1. Cell count (% control) ([4]; HMC3, compound 10 uM) | 2. Nuclear Area (% Control) ([4]; HMC3, compound 10 uM) | 3. Nuclear DNA Intensity (% control) ([4]; HMC3, compound 10 uM) | 1. Cell count (% control) ([5]; BV2, compound 10 uM) | 2. Nuclear Area (% Control) ([5]; BV2, compound 10 uM) | 3. Nuclear DNA Intensity (% control) ([5]; BV2, compound 10 uM) |
| --- | --- | --- | --- | --- | --- | --- | --- | --- | --- | --- | --- | --- | --- | --- | --- | --- | --- |
| CC(C)c1ccc(/C=N/NC(=O)c2ccc(O)cc2)cc1 [GSK 4716] | 215 µM (≈ 60.6 µg/mL) |  |  |  |  |  |  |  |  |  |  |  |  |  |  |  |  |
| COCCOCCOC(=O)N[C@@H](CC(C)C)C(=O)N[C@@H](Cc1ccccc1)C(=O)C(=O)NC1CC1 [SNJ-1945] | 150 µM (≈ 73.9 µg/mL) |  |  |  |  |  |  |  |  |  |  |  |  |  |  |  |  |
| CN1C[C@H](Nc2cnn(C)c(=O)c2Br)C[C@H](c2ccccc2)C1 [GSK4027] | 126 µM (≈ 47.6 µg/mL) |  |  |  |  |  |  |  |  |  |  |  |  |  |  |  |  |
| Fc1ccc(C(CCCNCC2CCc3[nH]c4ccc(F)cc4c3C2)c2ccc(F)cc2)cc1 (stereo not drawn) [UNC10302893A] |  | 0.0 % control | 0.0 % control | 14.1 % control | 53.2 % Control | 215.4 % control | 10.4 % control | 127.3 % Control | 33.1 % control |  |  |  |  |  |  |  |  |
| CCCCCOc1cc2c(cc1-c1cc(/C=C/C(=O)O)ccc1O)C(C)(C)CCC2(C)C [UNC10302971A] |  | 107.7 % control | 103.8 % control | 103.0 % control | 101.2 % Control | 101.8 % control | 104.0 % control | 103.5 % Control | 104.7 % control |  |  |  |  |  |  |  |  |
| COc1ccc2nc([S+]([O-])Cc3ncc(C)c(OC)c3C)nc-2[nH]1 (stereo not drawn) [UNC10303106A] |  | 91.6 % control | 116.6 % control | 100.3 % control | 105.8 % Control | 97.2 % control | 113.2 % control | 104.8 % Control | 103.4 % control |  |  |  |  |  |  |  |  |
| CC(C)Nc1cc(-c2c[nH]c(C(=O)N[C@H](CO)c3cccc(Cl)c3)c2)c(Cl)cn1 [UNC10302869A] |  | 59.0 % control | 222.2 % control | 116.3 % control | 105.5 % Control | 89.1 % control | 44.0 % control | 125.5 % Control | 96.6 % control |  |  |  |  |  |  |  |  |
| CC(=O)N[C@H](Cc1ccc(O)cc1)C(=O)N1CCC[C@@H]1C(=O)N1C[C@@H](O)C[C@@H]1C(=O)NCC(=O)N[C@H](C)C(=O)NCC(N)=O [UNC10303110A] (Ac-[dY][dP][dHyp]G[dA]G-NH2) |  |  |  |  |  |  |  |  |  | 73.8 % control | 117.7 % control | 110.1 % control | 103.7 % Control | 94.9 % control | 113.8 % control | 106.0 % Control | 97.3 % control |
| COc1ccc(CCN2CCN(CCCc3ccccc3)CC2)cc1OC.Cl.Cl [UNC10302848A] |  | 82.7 % control | 120.8 % control | 84.9 % control | 99.2 % Control | 95.9 % control | 91.1 % control | 105.5 % Control | 98.2 % control |  |  |  |  |  |  |  |  |
| CCN(CC)c1ccc(/C=N/NC(=O)c2ccc(O)cc2)cc1 [UNC10302868A] |  | 65.0 % control | 142.8 % control | 102.3 % control | 101.3 % Control | 100.0 % control | 64.8 % control | 105.9 % Control | 100.1 % control |  |  |  |  |  |  |  |  |
| Nc1ncnc2c1nc(Sc1ccc(Cl)cc1)n2[C@@H]1O[C@@H]2COP(=O)([O-])O[C@H]2[C@H]1O.[Na+] [UNC10302890A] |  | 84.6 % control | 104.7 % control | 115.9 % control | 99.4 % Control | 99.1 % control | 107.7 % control | 106.8 % Control | 98.4 % control |  |  |  |  |  |  |  |  |
| CN1c2ccc([N+](=O)[O-])cc2N=C(c2ccc(C(=O)O)cc2)c2cc3c(cc21)C(C)(C)CCC3(C)C [UNC10303107A] |  | 76.2 % control | 117.4 % control | 75.4 % control | 99.6 % Control | 105.3 % control | 16.8 % control | 151.2 % Control | 64.7 % control |  |  |  |  |  |  |  |  |
| CCc1ccc(S(=O)(=O)c2ccccc2)cc1S(=O)(=O)NCCCN(C)C [UNC10302948A] |  | 143.6 % control | 187.1 % control | 127.5 % control | 97.8 % Control | 101.2 % control | 115.1 % control | 106.0 % Control | 108.0 % control |  |  |  |  |  |  |  |  |
| CC(C)(O)c1coc(S(=O)(=O)[N-]C(=O)Nc2c3c(cc4c2CCC4)CCC3)c1.[Na+] [UNC10302861A] |  | 105.6 % control | 115.8 % control | 119.4 % control | 98.5 % Control | 105.7 % control | 111.0 % control | 101.8 % Control | 106.4 % control |  |  |  |  |  |  |  |  |
| O=C(NNc1nc2cc(F)ccc2n2cccc12)c1cnccn1 [UNC10302850A] |  | 103.0 % control | 362.4 % control | 86.1 % control | 94.6 % Control | 106.5 % control | 29.4 % control | 129.5 % Control | 94.0 % control |  |  |  |  |  |  |  |  |
| Cc1ccc(F)c(NC(=O)Nc2ccc(-c3cccc4[nH]nc(N)c34)cc2)c1 [UNC10302874A] |  |  |  |  |  |  |  |  |  | 29.4 % control | 235.2 % control | 43.1 % control | 121.8 % Control | 105.6 % control | 24.4 % control | 127.6 % Control | 103.1 % control |
| Cc1cc(NC(=O)Nc2ccc(F)c(F)c2)n(-c2ccccc2)n1 [UNC10302846A] |  | 71.8 % control | 158.9 % control | 127.2 % control | 103.4 % Control | 94.5 % control | 131.4 % control | 104.7 % Control | 107.1 % control |  |  |  |  |  |  |  |  |
| COCCOCCOC(=O)N[C@@H](CC(C)C)C(=O)N[C@@H](Cc1ccccc1)C(=O)C(=O)NC1CC1 [UNC10302677A] |  | 70.4 % control | 132.9 % control | 142.6 % control | 102.2 % Control | 91.6 % control | 132.7 % control | 105.3 % Control | 103.4 % control |  |  |  |  |  |  |  |  |
